Among the test systems are T47D; U-251; HCT-15; SK-MEL-2; A549; RPMI-8226; SN12C; ACHN; MDA-N; SF-539; OVCAR-8; SF-268; HT-29; HOP-92; IGROV-1; OVCAR-5; Hs-578T; UACC-62; SNB-75.
Holding throughout (assay): NCI tumour cell line growth inhibition, 48 h

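Assay format: 96-well plates, 48-hour exposure. Here, GI50 denotes the concentration required for 50% inhibition of growth.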 The source made the active and inactive calls. No stated cut-off is given here; in the data, active = GI50 up to about 1.1 µM and inactive = higher.

With `N=c1oc2ccccc2cc1C(=O)NC12CC3CC(CC(C3)C1)C2`, the GI50 was 4.52 µM (inactive) in the assay with T47D; 17.1 µM (inactive) in the assay on U-251; 12.5 µM in the assay on HCT-15; 14 µM (inactive) in the assay with SK-MEL-2; 16.2 µM (inactive) in the assay with A549; 5.71 µM (inactive) with RPMI-8226. For the same compound, the GI50 is 28.2 µM (inactive) in the assay with SN12C; 6.89 µM (inactive) in the assay with ACHN; 26.2 µM (inactive) in the assay on MDA-N; 16.9 µM (inactive) in the assay on SF-539; 30.4 µM (inactive) with OVCAR-8; 34 µM (inactive) with SF-268. The GI50 in the assay with HT-29 was 6.11 µM (inactive); in the assay on HOP-92, 25.8 µM (inactive); with IGROV-1 it was 16.5 µM (inactive); in the assay on OVCAR-5 it was 37.5 µM (inactive); in the assay with Hs-578T, 32.4 µM (inactive); in the assay with UACC-62, 15.8 µM (inactive). Also, the GI50 in the assay with SNB-75 was 19.3 µM (inactive).

`O=c1c2nc(-c3ccccc3)oc2n(-c2ccccc2)c(=O)n1-c1ccccc1`: the GI50 in the assay on T47D was 37.9 µM (inactive); in the assay on U-251 it was 19.3 µM (inactive); in the assay on HCT-15, more than 46.5 µM; in the assay with SK-MEL-2, > 46.5 µM (inactive); with A549, 37.6 µM (inactive); in the assay on RPMI-8226 it was > 46.5 µM (inactive). Moreover, the GI50 is 36.2 µM (inactive) in the assay on SN12C; 25.9 µM (inactive) with ACHN; > 46.5 µM (inactive) with MDA-N; 20.2 µM (inactive) in the assay with SF-539; 23.3 µM (inactive) in the assay with OVCAR-8; 20.7 µM (inactive) in the assay on SF-268. For the same compound, the GI50 with HT-29 was > 46.5 µM (inactive); with HOP-92, 14.4 µM (inactive); in the assay with IGROV-1, 26.5 µM (inactive); in the assay with OVCAR-5, > 46.5 µM (inactive); in the assay with Hs-578T, 21.9 µM (inactive); in the assay with UACC-62, 31.1 µM (inactive). For the same compound, the GI50 in the assay on SNB-75 is 18.1 µM (inactive).

With `O=c1c(C(c2ccc3ccccc3c2)c2c(O)oc3ccccc3c2=O)c(O)oc2ccccc12`, the GI50 in the assay with T47D is 39.1 µM (inactive); in the assay on U-251, 16.6 µM (inactive); in the assay with HCT-15, 20 µM; with SK-MEL-2 it was 34.5 µM (inactive); with A549, 33 µM (inactive); with RPMI-8226, 32.4 µM (inactive). The GI50 in the assay with SN12C is 20.6 µM (inactive); in the assay on ACHN it was 20.6 µM (inactive); in the assay with MDA-N, 27.4 µM (inactive); in the assay with SF-539 it was 25.5 µM (inactive); in the assay on OVCAR-8, 16.1 µM (inactive); with SF-268, 21.4 µM (inactive). For the same compound, the GI50 was 18.5 µM (inactive) in the assay on HT-29; 29.2 µM (inactive) in the assay with HOP-92; 30.8 µM (inactive) in the assay with IGROV-1; 28.1 µM (inactive) in the assay with OVCAR-5; 28.6 µM (inactive) in the assay with Hs-578T; 38.1 µM (inactive) in the assay with UACC-62. Further, the GI50 in the assay with SNB-75 is 18.8 µM (inactive).

`CC(C)(C)C(=O)OCC1CCC[N+]2(C)CCCCC12` (centres undefined): the GI50 is > 100 µM (inactive) in the assay with T47D; > 100 µM (inactive) with U-251; more than 100 µM in the assay with HCT-15; > 100 µM (inactive) in the assay on SK-MEL-2; > 100 µM (inactive) in the assay with A549; > 100 µM (inactive) in the assay with RPMI-8226. The GI50 in the assay on SN12C, in the assay on ACHN, with MDA-N, with SF-539, with OVCAR-8 and in the assay with SF-268 was > 100 µM (inactive) in each case. The GI50 in the assay with HT-29, in the assay with HOP-92, in the assay on IGROV-1, with OVCAR-5, in the assay on Hs-578T and with UACC-62 was > 100 µM (inactive) throughout. The GI50 in the assay with SNB-75 was > 100 µM (inactive).

As for `Cn1c(=O)n(CC(Br)CBr)c(=O)n(CC(Br)CBr)c1=O` (centres undefined), the GI50 was 38.7 µM (inactive) in the assay on T47D; 43.3 µM (inactive) with U-251; 36.2 µM with HCT-15; 46.1 µM (inactive) in the assay with SK-MEL-2; 40.3 µM (inactive) in the assay with A549; 25.1 µM (inactive) in the assay on RPMI-8226. Besides, the GI50 is 26 µM (inactive) in the assay with SN12C; 36.6 µM (inactive) in the assay on ACHN; 28.8 µM (inactive) in the assay on MDA-N; 25.3 µM (inactive) in the assay with SF-539; 58.7 µM (inactive) in the assay on OVCAR-8; 74.6 µM (inactive) with SF-268. Moreover, the GI50 with HT-29 was 21.7 µM (inactive); in the assay with HOP-92, > 100 µM (inactive); with IGROV-1 it was 39.9 µM (inactive); in the assay on OVCAR-5 it was 43.9 µM (inactive); in the assay with Hs-578T, > 100 µM (inactive); in the assay with UACC-62, 23.3 µM (inactive). In addition, in the assay with SNB-75, the GI50 was 58.5 µM (inactive).

Take `COc1cc2c(c(O)c1O)C(=O)C1CCC(=O)N1C2c1cccc2ccccc12` (centres undefined): the GI50 with T47D is > 50 µM (inactive); in the assay with U-251, > 50 µM (inactive); in the assay on HCT-15 it was more than 50 µM; in the assay with SK-MEL-2, > 50 µM (inactive); in the assay on A549, 30.3 µM (inactive); in the assay with RPMI-8226 it was > 50 µM (inactive). The GI50 with SN12C, in the assay on ACHN, with MDA-N, with SF-539, in the assay on OVCAR-8 and in the assay on SF-268 was > 50 µM (inactive) each time. Besides, the GI50 in the assay with HT-29 is > 50 µM (inactive); in the assay with HOP-92, > 50 µM (inactive); in the assay on IGROV-1 it was > 50 µM (inactive); with OVCAR-5, > 50 µM (inactive); with Hs-578T it was > 50 µM (inactive); with UACC-62 it was 49.9 µM (inactive). Further, in the assay on SNB-75, the GI50 is > 50 µM (inactive).

In the case of `CC(=O)NC(CCC(=O)C=[N+]=[N-])C(=O)O` (centres undefined), the GI50 in the assay on T47D was > 100 µM (inactive); in the assay on U-251 it was > 100 µM (inactive); in the assay with HCT-15, more than 100 µM; with SK-MEL-2, > 100 µM (inactive); with A549 it was > 100 µM (inactive); with RPMI-8226, > 100 µM (inactive). In addition, the GI50 in the assay on SN12C, with ACHN, with MDA-N, with SF-539, in the assay on OVCAR-8 and with SF-268 was > 100 µM (inactive) each time. Also, the GI50 in the assay on HT-29, in the assay with HOP-92, in the assay on IGROV-1, in the assay with OVCAR-5, in the assay with Hs-578T and in the assay on UACC-62 was > 100 µM (inactive) throughout. Moreover, in the assay with SNB-75, the GI50 was > 100 µM (inactive).

Turning to `CCC(N)(C(=O)O)C(C)C` (centres undefined), the GI50 is > 100 µM (inactive) in the assay with T47D; > 100 µM (inactive) with U-251; more than 100 µM in the assay with HCT-15; > 100 µM (inactive) in the assay on SK-MEL-2; > 100 µM (inactive) with A549; > 100 µM (inactive) in the assay with RPMI-8226. Further, the GI50 in the assay on SN12C, with ACHN, with MDA-N, with SF-539, in the assay on OVCAR-8 and in the assay with SF-268 was > 100 µM (inactive) in each case. Besides, the GI50 in the assay with HT-29 was > 100 µM (inactive); with HOP-92 it was 34.8 µM (inactive); in the assay on IGROV-1 it was > 100 µM (inactive); with OVCAR-5 it was > 100 µM (inactive); in the assay with Hs-578T it was > 100 µM (inactive); in the assay with UACC-62, > 100 µM (inactive). For the same compound, the GI50 in the assay with SNB-75 was > 100 µM (inactive).

On to `COc1ccc(C(=O)c2sc(Nc3ccc(Cl)cc3)nc2N)cc1`, for which the GI50 in the assay on T47D is 37.6 µM (inactive); in the assay on U-251, 10.7 µM (inactive); in the assay on HCT-15, 3.27 µM; with SK-MEL-2 it was 17 µM (inactive); in the assay on A549 it was 6.15 µM (inactive); with RPMI-8226 it was 4.16 µM (inactive). Also, the GI50 in the assay on SN12C was 21.6 µM (inactive); in the assay with ACHN it was 25.4 µM (inactive); with MDA-N, 2.37 µM (inactive); in the assay with SF-539, 14 µM (inactive); in the assay with OVCAR-8, 25.9 µM (inactive); in the assay on SF-268, 8.15 µM (inactive). Also, the GI50 in the assay on HT-29 was 4.43 µM (inactive); in the assay on HOP-92 it was 35.3 µM (inactive); with IGROV-1 it was 5.93 µM (inactive); in the assay with OVCAR-5 it was > 49.9 µM (inactive); in the assay on Hs-578T it was 11.2 µM (inactive); with UACC-62 it was 19.3 µM (inactive). The GI50 in the assay on SNB-75 was 2.79 µM (inactive).

With `COC(=O)CCC(=O)NC1=C(Nc2ccccc2)C(=O)c2ccccc2C1=O`, the GI50 with T47D is 13.3 µM (inactive); in the assay with U-251, 11.7 µM (inactive); with HCT-15, 11.2 µM; in the assay on SK-MEL-2, 5.57 µM (inactive); with A549 it was 18.8 µM (inactive); in the assay with RPMI-8226, 13.2 µM (inactive). The GI50 was 13.6 µM (inactive) with SN12C; 14.9 µM (inactive) in the assay with ACHN; 2.04 µM (inactive) in the assay with MDA-N; 13 µM (inactive) in the assay on SF-539; 11.4 µM (inactive) in the assay on OVCAR-8; 13.2 µM (inactive) in the assay on SF-268. Also, the GI50 was 16.9 µM (inactive) in the assay on HT-29; 15 µM (inactive) in the assay on HOP-92; 11.5 µM (inactive) in the assay with IGROV-1; 9.27 µM (inactive) with OVCAR-5; 7.18 µM (inactive) in the assay with Hs-578T; 3.67 µM (inactive) in the assay on UACC-62. The GI50 with SNB-75 was 18.3 µM (inactive).

As for `COC(=O)C1C(O)C(C)C(O)C(C)C=C(C)C2=C3C(=C(C)C(=O)c4c(O)c(c(C)c(OC(C)=O)c43)NC(=O)C(C)=C/C=C\C(C)C(O)C(C)C1O)OCO2` (centres undefined), the GI50 is 31 µM (inactive) in the assay on T47D; 45.4 µM (inactive) in the assay with U-251; 22.4 µM in the assay with HCT-15; 23.7 µM (inactive) in the assay with SK-MEL-2; 54 µM (inactive) with A549; 18.4 µM (inactive) in the assay with RPMI-8226. Moreover, the GI50 with SN12C was 37.4 µM (inactive); in the assay with ACHN it was 27 µM (inactive); in the assay with MDA-N, 16.9 µM (inactive); in the assay with SF-539 it was 37.8 µM (inactive); in the assay with OVCAR-8, 27.7 µM (inactive); with SF-268, 16.1 µM (inactive). Also, the GI50 in the assay with HT-29 was 27.7 µM (inactive); with HOP-92, 14.9 µM (inactive); in the assay with IGROV-1 it was 42.1 µM (inactive); in the assay with OVCAR-5, > 100 µM (inactive); with Hs-578T, 61.2 µM (inactive); with UACC-62 it was 28 µM (inactive). Also, the GI50 in the assay on SNB-75 is 12.4 µM (inactive).

For the origin of these results see ChEMBL document CHEMBL1201862, “PubChem BioAssay data set” (2004).
